Among the data in patent US20150322406A1, “METHOD FOR REPROGRAMMING SOMATIC CELLS TO PANCREATIC BETA CELLS” (CANCER RESEARCH TECHNOLOGY LIMITED, priority 2012, published 2015) are NGN3 protein stability values, retold here.

For the assay, the system named is NGN3-HA overexpressed in 293T cells. Put plainly: Western blot analysis of overexpressed NGN3-HA in 293T cells upon GSK3 inhibitor. The format is cell-based. The note with it: HEK293T cells overexpressing NGN3-HA, treated with GSK3β inhibitor; Western blot (FIG. 6b). An excerpt: (A) Schematic representation of the proposed mechanism of NGN3 degradation by Fbw7. (B) Western Blot analysis of overexpressed NGN3-HA in 293T cells upon GSK3 inhibitor. (C) Schematic representation of NGN3 GSK3 phosphorylation residues and the different NGN3 phospho-mutant construct generated. (D) NGN3-HA/Fbw7-Flag Immunoprecipitation assay using the different NGN3 constructs indicated in C. (E) Western Blot analysis of NGN3 in cells overexpressing the different NGN3 construct indicated in C. HEK293T cells were cultured in DMEM and 10% FBS. Cells were plated at subconfluence and transfected with Lipofectamine Reagent (Invitrogen) following the manufacturer instructions. HEK293T cells lysates or tissues were homogenized in RIPA lysis buffer supplemented with protease inhibitor (Sigma). Immunoblots were carried out as previously described^4. The gels were transferred to nitrocellulose membranes, and the membranes were immunoblotted with various antibodies as indicated: anti-NGN3, anti-flag, anti-HA, and anti-Myc. The conversion of pancreatic ductal cells into β-cells observed in the RFY mice in vivo could be due to up-regulation of substrates involved in beta cell neogenesis in the adult pancreas. […] To test whether Fbw7 had any effect on NGN3 protein stability (see FIG. 6a), a set of in vitro experiments were conducted. […]
(A western blot detects proteins with antibodies after separation by electrophoresis.)

For the compound `Cn1cc(C2=C(c3ccc(Cl)cc3Cl)C(=O)NC2=O)c2ccccc21` [SB216763], the NGN3 protein stability entry was “increased”.
